From PubChem BioAssay AID2060498 (Molecular Pharmacology Branch, DTP, NCI, 2025)

System: 171881-019-R-J1-PDC tumor spheroids, viability
Test: Anticancer human tumor 171881-019-R-J1-PDC patient-derived invasive breast carcinoma cell line growth inhibition [GQUAD]
Settings: spheroids with HUVEC and MSC; for IC50: curve of first compound; for viability, T/C: stronger effect = lower value
Procedure, shortened: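 Multi-cell-type spheroids of tumor cells with HUVEC and mesenchymal stem cells, treated with drug combinations. Concentrations descend in half-log steps from near clinical Cmax, or from 10 microM where Cmax is unknown; viability read-out.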

[1] = second compound 0.0316 µM, first compound 0.0316 µM
[2] = second compound 0.0316 µM, first compound 0.1 µM
[3] = second compound 0.0316 µM, first compound 0.316 µM
[4] = second compound 0.0316 µM, first compound 1 µM
[5] = second compound 0.0316 µM, first compound 3.16 µM
[6] = second compound 0.0316 µM, first compound 10 µM
[7] = second compound 0.1 µM, first compound 0.0316 µM
[8] = second compound 0.1 µM, first compound 0.1 µM
[9] = second compound 0.1 µM, first compound 0.316 µM
[10] = second compound 0.1 µM, first compound 1 µM
[11] = second compound 0.1 µM, first compound 3.16 µM
[12] = second compound 0.1 µM, first compound 10 µM
[13] = second compound 0.316 µM, first compound 0.0316 µM
[14] = second compound 0.316 µM, first compound 0.1 µM
[15] = second compound 0.316 µM, first compound 0.316 µM
[16] = second compound 0.316 µM, first compound 1 µM
[17] = second compound 0.316 µM, first compound 3.16 µM
[18] = second compound 0.316 µM, first compound 10 µM
[19] = second compound 1 µM, first compound 0.0316 µM
[20] = second compound 1 µM, first compound 0.1 µM
[21] = second compound 1 µM, first compound 0.316 µM
[22] = second compound 1 µM, first compound 1 µM
[23] = second compound 1 µM, first compound 3.16 µM
[24] = second compound 1 µM, first compound 10 µM
[25] = second compound 3.16 µM, first compound 0.0316 µM
[26] = second compound 3.16 µM, first compound 0.1 µM
[27] = second compound 3.16 µM, first compound 0.316 µM
[28] = second compound 3.16 µM, first compound 1 µM
[29] = second compound 3.16 µM, first compound 3.16 µM
[30] = second compound 3.16 µM, first compound 10 µM
[31] = second compound 10 µM, first compound 0.0316 µM
[32] = second compound 10 µM, first compound 0.1 µM
[33] = second compound 10 µM, first compound 0.316 µM
[34] = second compound 10 µM, first compound 1 µM
[35] = second compound 10 µM, first compound 3.16 µM
[36] = second compound 10 µM, first compound 10 µM
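Note: spheroids exposed to compounds for 7 days.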
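Throughout, for viability, T/C: 100% = DMSO vehicle control viability.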

CC(C)(O)C1CCC(Nc2ccc3ncc(-c4cccc(C(F)(F)F)c4)n3n2)CC1 (centres undefined) + Cc1cnc(CNC(=O)c2c(=O)c3ccc(N4CCCN(C)CC4)nc3n3c2sc2ccccc23)cn1
IC50 (second compound 0.0316 µM): 1620 nM | IC50 (second compound 0.1 µM): 1710 nM | IC50 (second compound 0.316 µM): 1470 nM | IC50 (second compound 1 µM): 1190 nM | IC50 (second compound 3.16 µM): 1070 nM | IC50 (second compound 10 µM): 927 nM | viability, T/C [1]: 95.8% | viability, T/C [2]: 87.5% | viability, T/C [3]: 89.5% | viability, T/C [4]: 69.7% | viability, T/C [5]: 18.2% | viability, T/C [6]: 26.9% | viability, T/C [7]: 88.7% | viability, T/C [8]: 83.8% | viability, T/C [9]: 70.9% | viability, T/C [10]: 73.4% | viability, T/C [11]: 19% | viability, T/C [12]: 27.2% | viability, T/C [13]: 76.5% | viability, T/C [14]: 76.7% | viability, T/C [15]: 72% | viability, T/C [16]: 63.1% | viability, T/C [17]: 21.9% | viability, T/C [18]: 25.7% | viability, T/C [19]: 71.9% | viability, T/C [20]: 65.2% | viability, T/C [21]: 72.9% | viability, T/C [22]: 56.3% | viability, T/C [23]: 13.6% | viability, T/C [24]: 18% | viability, T/C [25]: 65.4% | viability, T/C [26]: 60% | viability, T/C [27]: 63.1% | viability, T/C [28]: 53.1% | viability, T/C [29]: 0.32% | viability, T/C [30]: 0.82% | viability, T/C [31]: 59.3% | viability, T/C [32]: 62.5% | viability, T/C [33]: 58.1% | viability, T/C [34]: 49.3% | viability, T/C [35]: 0.4% | viability, T/C [36]: 0.62%

O=C(NO)c1cnc(N2CCN(S(=O)(=O)c3ccc4ccccc4c3)CC2)nc1 + Cc1cnc(CNC(=O)c2c(=O)c3ccc(N4CCCN(C)CC4)nc3n3c2sc2ccccc23)cn1
IC50 (second compound 0.0316 µM): 167 nM | IC50 (second compound 0.1 µM): 194 nM | IC50 (second compound 0.316 µM): 160 nM | IC50 (second compound 1 µM): 148 nM | IC50 (second compound 3.16 µM): 118 nM | IC50 (second compound 10 µM): 111 nM | viability, T/C [1]: 81.5% | viability, T/C [2]: 60.9% | viability, T/C [3]: 36.3% | viability, T/C [4]: 2.76% | viability, T/C [5]: 0.43% | viability, T/C [6]: 0.3% | viability, T/C [7]: 75.5% | viability, T/C [8]: 68.2% | viability, T/C [9]: 36.2% | viability, T/C [10]: 2.32% | viability, T/C [11]: 0.07% | viability, T/C [12]: 0.41% | viability, T/C [13]: 60.8% | viability, T/C [14]: 61.7% | viability, T/C [15]: 33.8% | viability, T/C [16]: 1.48% | viability, T/C [17]: 0.32% | viability, T/C [18]: 0.45% | viability, T/C [19]: 67% | viability, T/C [20]: 57.1% | viability, T/C [21]: 32.3% | viability, T/C [22]: 0.14% | viability, T/C [23]: 0.48% | viability, T/C [24]: 0.09% | viability, T/C [25]: 60% | viability, T/C [26]: 51.9% | viability, T/C [27]: 27.6% | viability, T/C [28]: 0.22% | viability, T/C [29]: 0.63% | viability, T/C [30]: 0.36% | viability, T/C [31]: 52.8% | viability, T/C [32]: 52.5% | viability, T/C [33]: 23.7% | viability, T/C [34]: 0.3% | viability, T/C [35]: 0.83% | viability, T/C [36]: 0.13%
